What is called Ki is the equilibrium dissociation constant of an inhibitor or competing ligand from its target.

The source made the active and inactive calls. No cut-off for these calls is given here.

Here are results for 18 compounds from ChEMBL document CHEMBL4270640, “Discovery of new 2, 5-disubstituted 1,3-selenazoles as selective human carbonic anhydrase IX inhibitors with potent anti-tumor activity” (Eur J Med Chem, 2018).

For one assay, the target named is Carbonic anhydrase 9 (Homo sapiens, UniProt Q16790). The experiment in a line: Inhibition of recombinant human carbonic anhydrase 9 incubated for 15 mins prior to testing by stopped flow CO2 hydration assay.
Assay [1] relates to PC-3. The experiment in a line: Antiproliferative activity against human PC3 cells at 10 uM after 48 hrs under hypoxic condition by MTT assay relative to control. The class given is functional. Background: Tetrazolium assays rely on reduction of a dye to a coloured formazan, in cell work by metabolically active cells.
The test system of assay [2] is PC-3. Briefly: Antiproliferative activity against human PC3 cells assessed as cell viability at 100 uM after 48 hrs under normoxic condition by MTT assay relative to control. The settings on record: PC-3, 48 h, read-out: Activity. The assay is classed as functional.
The test system of assay [3] is MDA-MB-231. The experiment in a line: Antiproliferative activity against human MDA-MB-231 cells assessed as cell killing at 30 to 100 uM after 48 hrs under normoxic condition by MTT assay. The class given is functional, cell-based.
Assay [4] deals with MDA-MB-231. Briefly: Antiproliferative activity against human MDA-MB-231 cells assessed as cell killing at 10 uM after 48 hrs under normoxic condition by MTT assay relative to control. The class given is functional.
Assay [5] relates to MDA-MB-231. Briefly: Antiproliferative activity against human MDA-MB-231 cells assessed as cell viability at 100 uM after 48 hrs under hypoxic condition by MTT assay relative to control. The class given is functional. The settings on record: MDA-MB-231, 48 h, read-out: Activity.
Assay [6] concerns PC-3. The experiment in a line: Antiproliferative activity against human PC3 cells assessed as cell viability at 1 uM after 48 hrs under normoxic condition by MTT assay relative to control. The assay is classed as functional. The settings on record: for viability at 1 µM: PC-3, 48 h, read-out: Activity.
Assay [7] relates to PC-3. The experiment in a line: Antiproliferative activity against human PC3 cells assessed as cell viability at 10 uM after 48 hrs under normoxic condition by MTT assay relative to control. The assay is classed as functional.
The subject of assay [8] is PC-3. Briefly: Antiproliferative activity against human PC3 cells assessed as cell viability at 30 uM after 48 hrs under normoxic condition by MTT assay relative to control. The assay is classed as functional. The following applies: PC-3, 48 h, read-out: Activity.
For assay [9], the system named is MDA-MB-231. The experiment in a line: Antiproliferative activity against human MDA-MB-231 cells assessed as cell viability at 1 uM after 48 hrs under normoxic condition by MTT assay relative to control. The settings on record: for viability at 1 µM: MDA-MB-231, 48 h, read-out: Activity. The class given is functional.
The test system of assay [10] is PC-3. Briefly: Antiproliferative activity against human PC3 cells assessed as cell viability at 1 uM after 48 hrs under hypoxic condition by MTT assay relative to control. The class given is functional. The settings on record: PC-3, 48 h, read-out: Activity.

Regarding `NC(=[Se])c1ccc(S(N)(=O)=O)cc1`, the Ki on Carbonic anhydrase 9 is 7.6 nM.

As to `Cc1ccc([Se]Cc2cnc(-c3ccc(S(N)(=O)=O)cc3)[se]2)cc1`, on Carbonic anhydrase 9, the Ki was 7.1 nM.

Consider `NS(=O)(=O)c1ccc(-c2ncc(-c3ccccc3)[se]2)cc1`, for which the Ki on Carbonic anhydrase 9 was determined as 6.5 nM.

Turning to `N=C(N)SCc1cnc(-c2ccc(S(N)(=O)=O)cc2)[se]1`, the Ki at Carbonic anhydrase 9 turned out to be 7 nM.

For `COc1cccc(-c2cnc(-c3ccc(S(N)(=O)=O)cc3)[se]2)c1`, the inhibitory constant (Ki) at Carbonic anhydrase 9 amounted to 56.3 nM.

In turn, `COc1ccc([Se]Cc2cnc(-c3ccc(S(N)(=O)=O)cc3)[se]2)cc1` displayed an Activity in the assay with PC-3 [1] of 77%. The viability at 100 µM with PC-3 [2] came out at 11%; in the assay on MDA-MB-231 [5], 46%. Moreover, the outcome in the assay with MDA-MB-231 [3] was Active. Moreover, the outcome with MDA-MB-231 [4], with PC-3 [6], with PC-3 [7] and in the assay with MDA-MB-231 [9] was inactive. In addition, the viability at 30 µM with PC-3 [8] was determined as 59%. In addition, the Ki on Carbonic anhydrase 9 was determined as 0.55 nM.

Take `Cc1ccc([Te]Cc2cnc(-c3ccc(S(N)(=O)=O)cc3)[se]2)cc1`: the Ki on Carbonic anhydrase 9 is 2.6 nM.

`COc1ccc([Te]Cc2cnc(-c3ccc(S(N)(=O)=O)cc3)[se]2)cc1`: the viability at 1 µM turned out to be 23% in the assay with PC-3 [6] and 16% with MDA-MB-231 [9]. Further, at Carbonic anhydrase 9, the inhibition constant Ki was 0.89 nM.

In the case of `NS(=O)(=O)c1ccc(-c2ncc(C[Te]c3ccccc3)[se]2)cc1`, on Carbonic anhydrase 9, the inhibition constant (Ki) was determined as 7.2 nM.

Regarding `NS(=O)(=O)c1ccc(-c2ncc(C[Se]c3ccccc3)[se]2)cc1`, the inhibition constant (Ki) on Carbonic anhydrase 9 was 9.1 nM.

Regarding `NS(=O)(=O)c1ccc(-c2ncc(-c3ccc(Br)cc3)[se]2)cc1`, at Carbonic anhydrase 9, the inhibition constant Ki came to 0.87 nM.

On to `NS(=O)(=O)c1ccc(-c2ncc(CCl)[se]2)cc1`, for which the inhibitory constant (Ki) at Carbonic anhydrase 9 was 2.8 nM.

Consider `NS(=O)(=O)c1ccc(-c2ncc(CSc3ccccc3)[se]2)cc1`, for which the Ki at Carbonic anhydrase 9 turned out to be 5.4 nM.

Regarding `NS(=O)(=O)c1ccc(-c2ncc(-c3ccc(F)cc3)[se]2)cc1`, the inhibition constant (Ki) on Carbonic anhydrase 9 was 7.5 nM.

As to `NS(=O)(=O)c1ccc(-c2ncc(C(=O)O)[se]2)cc1`, on Carbonic anhydrase 9, the Ki worked out at 9 nM.

In the case of `NS(=O)(=O)c1ccc(-c2ncc(-c3ccc([N+](=O)[O-])cc3)[se]2)cc1`, in the assay with MDA-MB-231 [4], the Activity was above 90%. The viability at 1 µM with PC-3 [6] is 60%; in the assay on PC-3 [10], 32%; in the assay with MDA-MB-231 [9] it was 73%. In addition, the viability at 10 µM with PC-3 [7] (PC-3, 48 h, read-out: Activity) worked out at 10%. For the same compound, the inhibition constant (Ki) on Carbonic anhydrase 9 was 8.2 nM.

Take `Cc1cnc(-c2ccc(S(N)(=O)=O)cc2)[se]1`: the Ki at Carbonic anhydrase 9 was found to be 6.9 nM.

As to `NS(=O)(=O)c1ccc(-c2ncc(-c3ccc(Cl)cc3)[se]2)cc1`, the Ki at Carbonic anhydrase 9 amounted to 8.4 nM.
